According to PubChem BioAssay AID2060327 (Molecular Pharmacology Branch, DTP, NCI, 2025):
Where “and” joins values, the source holds several entries; their conditions need not be identical. Identical values can stand only once.

System: PC-3 multi-cell spheroids, viability
Assay: Anticancer human tumor PC-3 cell line growth inhibition [IpAb];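 further: spheroids exposed to compounds for 7 days before readout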;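 on viability, T/C: 100% = DMSO vehicle control wells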
Conditions: for viability, T/C: stronger effect = lower value
Excerpt: Combinatorial screen of targeted agents with ipatasertib and abemaciclib in multi-cell type tumor spheroids
A high-throughput screen of multi-cell type tumor spheroids was designed to identify active combinations of targeted small molecules and ipatasertib or abemaciclib. Complex spheroids include a stromal component modeled by human endothelial cells (HUVEC) and fibroblasts modeled by human mesenchymal stem cells (MSCs). The concentration ranges selected for each drug and investigational agent were based upon clinically achievable concentrations if the clinical Cmax of the agent was known.
Compounds. The drugs and investigational agents: ipatasertib (NSC767898), abemaciclib(NSC768073), selumetinib (NSC741078), trametinib (758246), adavosertib (NSC754352), everolimus (NSC733504), sapanisertib (NSC764658), vemurafenib (NSC761431), venetoclax (NSC766270), copanlisib (NSC809693), apelisib (NSC765974), palbociblib (NSC758247), vemurafenib (NSC761431), dabrafenib (NSC764134), ravoxertinib (NSC781343), BMS-387032 (NSC767048), sotorasib (NSC818433), talazoparib (NSC767125) and afursertib (NSC778305), were obtained from the National Cancer Institute (NCI) Developmental Therapeutics Program Chemical Repository. The FDA-approved anticancer drug set is available from the NCI Developmental Therapeutics Program. […] The stock solutions were prepared in dimethyl sulfoxide (DMSO, Sigma-Aldrich, St. Louis, MO, cat. D2650) at 800-fold the tested concentration and stored at -70 degrees C prior to their use. All drugs and investigational agents were tested over a range starting from a high concentration at or near the clinical Cmax and decreasing in half-log increments. If the clinical Cmax for an agent had not been determined, the highest concentration tested was 10 microM.
NCI60 Cell Culture. NCI60 cell lines were obtained from the NCI Developmental Therapeutics Program Tumor Repository. For each lot of cells, the Repository performed Applied Biosystems AmpFLSTR Identifiler testing with PCR amplification to confirm consistency with the published Identifier STR profile for each cell line. Cells were kept in continuous culture for no more than 20 passages. The optimal seeding densities for each of the cell lines at each time point assessed were determined prior to performing the concentration response studies. Briefly, the NCI60 human tumor lines were grown as monolayers in RPMI 1640 medium supplemented with 10% FBS and 2 mmol/L L-glutamine.
An additional 9 lines were from the NCI60 cell line panel including MDA-MB-231 breast carcinoma, MDA-MB-468 breast carcinoma, MCF7 breast carcinoma, Hs578T breast carcinoma, MALME-3M melanoma, SK-MEL-2 melanoma, SK-OV-3 ovarian carcinoma, DU-145 prostate carcinoma, PC-3 prostate carcinoma, all cell lines along with major genetic alterations are listed on Table 2. Pooled donor human umbilical vein endothelial cells (HUVEC, Lonza, cat. CC-2519) and human mesenchymal stem cells (hMSC, Lonza, cat. PT-2501) were purchased from Lonza (Walkersville, MD).
PDMR cell lines were grown in complete medium (DC medium): Dulbecco's modified Eagle's medium (DMEM)/F12 supplemented with 5% fetal bovine serum (FBS), 2 mM L-glutamine, 100 U/mL penicillin and 100 µg/ml streptomycin, 0.4 µg/ml hydrocortisone, 10 ng/ml epidermal growth factor (EGF) recombinant human protein, 24 µg/mL adenine, and 0.1 mg/mL primocin. During culture from frozen stock vials, PDMR cells were cultured in the same medium containing 10 µM Y-27632 (see Table 3). The PDCs were cultured in complete DMEM/F12 media without 10 microM Y-27632 dihydrochloride for at least two passages prior to the screen. The pooled donor HUVEC and hMSC were cultured in endothelial cell growth medium 2 (PromoCell, Heidelberg, Germany, cat. C-22011) and mesenchymal stem cell growth medium 2 (PromoCell, cat. C-28009), respectively. For all experiments, HUVEC and hMSC were used at passages </=5.
[…]

Compound	IC50 (curve of compound)	viability, T/C (compound 0.0316 µM)	viability, T/C (compound 0.1 µM)	viability, T/C (compound 0.316 µM)	viability, T/C (compound 1 µM)	viability, T/C (compound 3.16 µM)	viability, T/C (compound 10 µM)	also measured
C=CC(=O)N1CCN(c2nc(=O)n(-c3c(C)ccnc3C(C)C)c3nc(-c4c(O)cccc4F)c(F)cc23)C(C)C1 (stereo not drawn)	> 10000 nM	108% and 98.7%	100% and 108%	90.2% and 99.7%	110% and 112%	122%	79.6% and 119%	–
C=CCn1c(=O)c2cnc(Nc3ccc(N4CCN(C)CC4)cc3)nc2n1-c1cccc(C(C)(C)O)n1	515 nM and 548 nM	102% and 104%	94% and 92.4%	68.1% and 67.3%	23.1% and 31.4%	26.6% and 22.3%	26.4% and 23.9%	–
CC(C)NCC(C(=O)N1CCN(c2ncnc3c2C(C)CC3O)CC1)c1ccc(Cl)cc1 (stereo not drawn)	–	–	72.9% [middle of 13 runs]	43.7% [middle of 13 runs]	24.7% [middle of 12 runs]	14.9% [middle of 12 runs]	13.3% [middle of 13 runs]	IC50 (compound alone, run of 44348): 249 nM [middle of 13 runs]
CC1(C)CCC(CN2CCN(c3ccc(C(=O)NS(=O)(=O)c4ccc(NCC5CCOCC5)c([N+](=O)[O-])c4)c(Oc4cnc5[nH]ccc5c4)c3)CC2)=C(c2ccc(Cl)cc2)C1	5210 nM and 6000 nM	105% and 102%	107% and 108%	105% and 112%	107% and 108%	85.4% and 109%	3.66% and 4.01%	–
CCN1CCN(Cc2ccc(Nc3ncc(F)c(-c4cc(F)c5nc(C)n(C(C)C)c5c4)n3)nc2)CC1	–	–	–	–	–	–	–	IC50 (compound alone, run of 44348): > 1000 nM and 502 nM
COc1c(OCCCN2CCOCC2)ccc2c3n(c(=NC(=O)c4cnc(N)nc4)nc12)CCN3	29.2 nM and 146 nM	47.7% and 104%	21.7% and 69.3%	6.8% and 11.9%	5.07% and 9.47%	–	–	viability, T/C (compound 0.00316 µM): 97.6% and 101%; viability, T/C (compound 0.01 µM): 79% and 99.4%

Now from value to compound, other results behind:

IC50 (curve of compound)	Compound	viability, T/C (compound 0.0316 µM)	viability, T/C (compound 0.1 µM)	viability, T/C (compound 0.316 µM)	viability, T/C (compound 1 µM)	viability, T/C (compound 3.16 µM)	viability, T/C (compound 10 µM)	also measured
> 300 nM	CC(=O)c1c(C)c2cnc(Nc3ccc(N4CCNCC4)cn3)nc2n(C2CCCC2)c1=O	–	–	–	–	–	–	viability, T/C (compound 0.000949 µM): 95.8% and 105%; viability, T/C (compound 0.003 µM): 96.3% and 95.7%; viability, T/C (compound 0.00949 µM): 88.9% and 83.5%; viability, T/C (compound 0.03 µM): 63.2% and 72.3%; viability, T/C (compound 0.0949 µM): 56.1% and 64.3%; viability, T/C (compound 0.3 µM): 62.9% and 61.2%
197 nM and 189 nM	CC(C)(C)c1cnc(CSc2cnc(NC(=O)C3CCNCC3)s2)o1	–	–	–	–	–	–	viability, T/C (compound 0.00949 µM): 100% and 112%; viability, T/C (compound 0.03 µM): 119% and 114%; viability, T/C (compound 0.0949 µM): 108% and 120%; viability, T/C (compound 0.3 µM): 16.7% and 4.98%; viability, T/C (compound 0.949 µM): 6.38% and 6.26%; viability, T/C (compound 3 µM): 6.95% and 7.36%
1.71 nM and 3.89 nM	CC(C)n1nc(-c2ccc3oc(N)nc3c2)c2c(N)ncnc21	11.9% and 12.8%	9.65% and 10.2%	–	–	–	–	viability, T/C (compound 0.000316 µM): 93% and 98.7%; viability, T/C (compound 0.001 µM): 55.6% and 81.3%; viability, T/C (compound 0.00316 µM): 42.7% and 57.6%; viability, T/C (compound 0.01 µM): 25.8% and 25%
> 10000 nM	CCCS(=O)(=O)Nc1ccc(F)c(C(=O)c2c[nH]c3ncc(-c4ccc(Cl)cc4)cc23)c1F	118% and 111%	106% and 99.5%	114% and 111%	111% and 101%	118% and 112%	72.7% and 67.1%	–
